EP1374909A2, “Evaluation of, delivery of, and use of agents to treat heart disorders” (THE GENERAL HOSPITAL CORPORATION, priority 1997, dated 1999)

System: neonatal cardiomyocytes
Experiment: Intracellular Ca2+ measurements (fura 2) and cell shortening detection
Assay type: cell-based, rats
Details: maximal isoproterenol stimulation; uninfected and Ad.RSV.PL-infected (10 pfu/cell) cardiomyocytes, 1 Hz
Procedure: Spontaneously beating cardiomyocytes were prepared from 1 to 2 day old rats and cultured in P-10 medium (GIBCO,BRL) in the presence of 5% fetal calf serum and 10% horse serum for 3 days as described previously in Kang J.X. et al., Proc. Natl. Acad. Sci. U.S.A., 1995, 92:[…] and Kang J.X. and Leaf A., Euro. J. Pharmacol., 1996, 297:97-106, the contents of which are incorporated herein by reference. Measurements of cell shortening and cytosolic Ca^2+ were performed on neonatal cardiomyocytes cultured on round, coated, glass coverslips (0.1 mm thickness, 31 mm diameter) in 35 mm culture dishes. Cells were counted using a hemocytometer. Approximately 5x10^5 cells were plated in each coverslip.
Measurements of intracellular Ca^2+ and cell shortening were performed as described earlier in Hajjar et al. (1997), Kang et al. (1995) and Kang et al (1996), the contents of which are incorporated herein by reference. […] A dual excitation spectrofluorometer (IONOPTIX) was used to record fluorescence emissions (505 nm) elicited from exciting wavelengths of 360 and 380 nm. […] High-contrast microspheres attached to the cell surface of the cardiomyocytes were imaged using a charge-coupled device video camera attached to the microscope, and motion along a selected raster line segment who quantified by a video motion detector system (IONOPTIX).

## CC(C)NCC(O)c1ccc(O)c(O)c1 (stereo not shown) [isoproterenol]
  time course of the Ca^2+ transients: decreased to the same level
